Measured values published in patent US20260022142A1, “MACROCYCLIC IMMUNOMODULATORS” (Bristol-Myers Squibb Company, priority 2022, published 2026).
Bridge positions count the residues as written; N and C are the ends. Square brackets hold non-standard residues; d marks the D form. Peptide text beside a SMILES is read from it. * marks the point of attachment. ξ: configuration not given here. Bip = N[C@@H](Cc1ccc(-c2ccccc2)cc1)C(=O)O; Phe(3-Me) = Cc1cccc(C[C@H](N)C(=O)O)c1; Cha = N[C@@H](CC1CCCCC1)C(=O)O; Cit = NC(=O)NCCC[C@H](N)C(=O)O; Carboxymethyl = O=C(O)C*; Orn = NCCC[C@H](N)C(=O)O; Aun = NCCCCCCCCCCC(=O)O; Dab = NCC[C@H](N)C(=O)O; Dap = NC[C@H](N)C(=O)O; AEEA = NCCOCCOCC(=O)O; ξC = NC(CS)C(=O)O

Target: T1, PD-1/PD-L1 interaction (PE-labeled human PD-L1-Ig binding to Jurkat cell line over-expressing human PD-1) (Homo sapiens, UniProt Q15116)
T1 construct: expressed in transfected cells; host or cells: Jurkat
Experiment: Jurkat-PD-1 Cell Binding High-Content Screening Assay (CBA)
Format: cell-based
Settings: Jurkat cell line over-expressing human PD-1; PE-labeled PD-L1-Ig 20 nM final; read-out: Jurkat hPD1-PDL1 IC50
How it was run: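 Read-out is high-content imaging of cell-bound phycoerythrin-tagged PD-L1-Ig on fixed, Hoechst-counterstained Jurkat cells that over-express human PD-1. Compound exposure lasts 2 h at 37° C before the labeled ligand (20 nM final) is added for a further hour.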

T1 sequence (Q15116 25-288): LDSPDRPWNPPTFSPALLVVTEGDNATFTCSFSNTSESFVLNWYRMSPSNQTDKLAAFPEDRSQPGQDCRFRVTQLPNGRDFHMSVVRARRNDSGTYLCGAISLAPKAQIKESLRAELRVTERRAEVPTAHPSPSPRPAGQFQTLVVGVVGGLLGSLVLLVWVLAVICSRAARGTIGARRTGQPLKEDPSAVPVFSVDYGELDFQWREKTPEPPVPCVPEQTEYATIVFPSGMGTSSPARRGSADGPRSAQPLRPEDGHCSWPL

Row | IC50 | Structure (SMILES)
1 | 11.1 nM | Cc1cccc(C[C@@H]2NC(=O)[C@H](CC(=O)O)NC(=O)[C@H](Cc3ccc(OCC(=O)O)cc3)NC(=O)[C@H](CN)NC(=O)CSC[C@@H](C(=O)N[C@@H](CCCCN)C(=O)NCCOCCOCC(=O)NCCCCCCCCCCC(=O)O)NC(=O)[C@H](CN)NC(=O)[C@H](C(C)C)NC(=O)[C@H](CC3CCCCC3)NC(=O)[C@H](CCN)NC(=O)[C@@H](CC(C)C)NC(=O)[C@H](CCCN)NC(=O)[C@H](CCCNC(N)=O)NC(=O)[C@H](Cc3ccc(-c4ccccc4)cc3)NC(=O)[C@H](C(C)C)NC2=O)c1 [Compound 2649] ({CH2CO}-[Dap]Y(Carboxymethyl)D[Phe(3-Me)]V[Bip][Cit][Orn][dL][Dab][Cha]V[Dap]CK[AEEA][Aun]-OH; thioether N-14)
2 | 11.5 nM | CC[C@H](C)[C@@H]1NC(=O)[C@H](Cc2ccc(-c3ccccc3)cc2)NC(=O)[C@H](C(C)C)NC(=O)[C@H](Cc2cccc(C)c2)NC(=O)[C@H](CC(=O)O)NC(=O)[C@H](Cc2ccc(OCC(=O)O)cc2)NC(=O)[C@H](CN)NC(=O)CSC[C@@H](C(=O)N[C@@H](CCCCN)C(=O)NCCOCCOCC(=O)NCCCCCCCCCCC(=O)O)NC(=O)[C@H](CN)NC(=O)[C@H](C(C)C)NC(=O)[C@H](CC2CCCCC2)NC(=O)[C@H](CCN)NC(=O)[C@@H](CC(C)C)NC(=O)[C@H](CCCN)NC1=O [Compound 2650] ({CH2CO}-[Dap]Y(Carboxymethyl)D[Phe(3-Me)]V[Bip]I[Orn][dL][Dab][Cha]V[Dap]CK[AEEA][Aun]-OH; thioether N-14)
3 | 9.7 nM | Cc1cccc(C[C@@H]2NC(=O)[C@H](CC(=O)O)NC(=O)[C@H](Cc3ccc(OCC(=O)O)cc3)NC(=O)[C@H](CN)NC(=O)CSC[C@@H](C(=O)N[C@@H](CCCCN)C(=O)NCCOCCOCC(=O)NCCCCCCCCCCC(=O)O)NC(=O)[C@H](CCCN)NC(=O)[C@H](C(C)C)NC(=O)[C@H](CC3CCCCC3)NC(=O)[C@H](CCN)NC(=O)[C@@H](CC(C)C)NC(=O)[C@H](CCCN)NC(=O)[C@H](CCCNC(N)=O)NC(=O)[C@H](Cc3ccc(-c4ccccc4)cc3)NC(=O)[C@H](C(C)C)NC2=O)c1 [Compound 2651] ({CH2CO}-[Dap]Y(Carboxymethyl)D[Phe(3-Me)]V[Bip][Cit][Orn][dL][Dab][Cha]V[Orn]CK[AEEA][Aun]-OH; thioether N-14)
4 | 6.1 nM | CC[C@H](C)[C@@H]1NC(=O)[C@H](Cc2ccc(-c3ccccc3)cc2)NC(=O)[C@H](C(C)C)NC(=O)[C@H](Cc2cccc(C)c2)NC(=O)[C@H](CC(=O)O)NC(=O)[C@H](Cc2ccc(OCC(=O)O)cc2)NC(=O)[C@H](CN)NC(=O)CSC[C@@H](C(=O)N[C@@H](CCCCN)C(=O)NCCOCCOCC(=O)NCCCCCCCCCCC(=O)O)NC(=O)[C@H](CCCN)NC(=O)[C@H](C(C)C)NC(=O)[C@H](CC2CCCCC2)NC(=O)[C@H](CCN)NC(=O)[C@@H](CC(C)C)NC(=O)[C@H](CCCN)NC1=O [Compound 2652] ({CH2CO}-[Dap]Y(Carboxymethyl)D[Phe(3-Me)]V[Bip]I[Orn][dL][Dab][Cha]V[Orn]CK[AEEA][Aun]-OH; thioether N-14)
5 | 11.2 nM | Cc1cccc(C[C@@H]2NC(=O)[C@H](CC(=O)O)NC(=O)[C@H](Cc3ccc(OCC(=O)O)cc3)NC(=O)[C@H](CN)NC(=O)CSC[C@@H](C(=O)N[C@@H](CCCCN)C(=O)NCCOCCOCC(=O)NCCCCCCCCCCC(=O)O)NC(=O)[C@H](CCCNC(=N)N)NC(=O)[C@H](C(C)C)NC(=O)[C@H](CC3CCCCC3)NC(=O)[C@H](CCN)NC(=O)[C@@H](CC(C)C)NC(=O)[C@H](CCCN)NC(=O)[C@H](CCCNC(N)=O)NC(=O)[C@H](Cc3ccc(-c4ccccc4)cc3)NC(=O)[C@H](C(C)C)NC2=O)c1 [Compound 2653] ({CH2CO}-[Dap]Y(Carboxymethyl)D[Phe(3-Me)]V[Bip][Cit][Orn][dL][Dab][Cha]VRCK[AEEA][Aun]-OH; thioether N-14)
6 | 5.2 nM | CC[C@H](C)[C@@H]1NC(=O)[C@H](Cc2ccc(-c3ccccc3)cc2)NC(=O)[C@H](C(C)C)NC(=O)[C@H](Cc2cccc(C)c2)NC(=O)[C@H](CC(=O)O)NC(=O)[C@H](Cc2ccc(OCC(=O)O)cc2)NC(=O)[C@H](CN)NC(=O)CSC[C@@H](C(=O)N[C@@H](CCCCN)C(=O)NCCOCCOCC(=O)NCCCCCCCCCCC(=O)O)NC(=O)[C@H](CCCNC(=N)N)NC(=O)[C@H](C(C)C)NC(=O)[C@H](CC2CCCCC2)NC(=O)[C@H](CCN)NC(=O)[C@@H](CC(C)C)NC(=O)[C@H](CCCN)NC1=O [Compound 2654] ({CH2CO}-[Dap]Y(Carboxymethyl)D[Phe(3-Me)]V[Bip]I[Orn][dL][Dab][Cha]VRCK[AEEA][Aun]-OH; thioether N-14)
7 | 9.4 nM | CC(C)C[C@H]1NC(=O)[C@H](CCCN)NC(=O)[C@H](CCCNC(N)=O)NC(=O)[C@H](Cc2ccc(-c3ccccc3)cc2)NC(=O)[C@H](C(C)C)NC(=O)[C@H](Cc2c[nH]c3ccccc23)NC(=O)[C@H](CC(=O)O)NC(=O)[C@H](Cc2ccc(OCC(=O)O)cc2)NC(=O)[C@H](Cc2ccc(OCC(=O)O)cc2)NC(=O)CSC[C@@H](C(=O)NCCOCCOCC(=O)N[C@@H](CCN)C(=O)NCCCCCCCCCCC(=O)O)NC(=O)[C@H](CCCNC(=N)N)NC(=O)[C@H](C(C)C)NC(=O)[C@H](CC2CCCCC2)NC(=O)[C@H](CCN)NC1=O [Compound 2655] ({CH2CO}-Y(Carboxymethyl)Y(Carboxymethyl)DWV[Bip][Cit][Orn][dL][Dab][Cha]VRC[AEEA][Dab][Aun]-OH; thioether N-14)
8 | 8.2 nM | CC[C@H](C)[C@@H]1NC(=O)[C@H](Cc2ccc(-c3ccccc3)cc2)NC(=O)[C@H](C(C)C)NC(=O)[C@H](Cc2c[nH]c3ccccc23)NC(=O)[C@H](CC(=O)O)NC(=O)[C@H](Cc2ccc(OCC(=O)O)cc2)NC(=O)[C@H](Cc2ccc(OCC(=O)O)cc2)NC(=O)CSC[C@@H](C(=O)NCCOCCOCC(=O)N[C@@H](CCN)C(=O)NCCCCCCCCCCC(=O)O)NC(=O)[C@H](CCCNC(=N)N)NC(=O)[C@H](C(C)C)NC(=O)[C@H](CC2CCCCC2)NC(=O)[C@H](CCN)NC(=O)[C@@H](CC(C)C)NC(=O)[C@H](CCCN)NC1=O [Compound 2656] ({CH2CO}-Y(Carboxymethyl)Y(Carboxymethyl)DWV[Bip]I[Orn][dL][Dab][Cha]VRC[AEEA][Dab][Aun]-OH; thioether N-14)

The remaining lines, values behind:

Row | Structure (SMILES) | IC50
9 | CC[C@H](C)[C@@H]1NC(=O)[C@H](Cc2ccc(-c3ccccc3)cc2)NC(=O)[C@H](C(C)C)NC(=O)[C@H](Cc2c[nH]c3ccccc23)NC(=O)[C@H](CC(=O)O)NC(=O)[C@H](Cc2ccc(OCC(=O)O)cc2)NC(=O)[C@H](CN)NC(=O)CSCC(C(=O)NCCOCCOCC(=O)NCCCCCCCCCCC(=O)O)NC(=O)[C@H](CCCCN)NC(=O)[C@H](C(C)C)NC(=O)[C@H](CC2CCCCC2)NC(=O)[C@H](CCN)NC(=O)[C@@H](CC(C)C)NC(=O)[C@H](CCCN)NC1=O (stereo partly drawn) [Compound 2644] ({CH2CO}-[Dap]Y(Carboxymethyl)DWV[Bip]I[Orn][dL][Dab][Cha]VK[ξC][AEEA][Aun]-OH; thioether N-14) | 9.4 nM
10 | Cc1cccc(C[C@@H]2NC(=O)[C@H](CC(=O)O)NC(=O)[C@H](Cc3ccc(OCC(=O)O)cc3)NC(=O)[C@H](CN)NC(=O)CSCC(C(=O)NCCOCCOCC(=O)NCCCCCCCCCCC(=O)O)NC(=O)[C@H](CN)NC(=O)[C@H](C(C)C)NC(=O)[C@H](CC3CCCCC3)NC(=O)[C@H](CCN)NC(=O)[C@@H](CC(C)C)NC(=O)[C@H](CCCN)NC(=O)[C@H](CCCNC(N)=O)NC(=O)[C@H](Cc3ccc(-c4ccccc4)cc3)NC(=O)[C@H](C(C)C)NC2=O)c1 (stereo partly drawn) [Compound 2645] ({CH2CO}-[Dap]Y(Carboxymethyl)D[Phe(3-Me)]V[Bip][Cit][Orn][dL][Dab][Cha]V[Dap][ξC][AEEA][Aun]-OH; thioether N-14) | 15.4 nM
11 | CC[C@H](C)[C@@H]1NC(=O)[C@H](Cc2ccc(-c3ccccc3)cc2)NC(=O)[C@H](C(C)C)NC(=O)[C@H](Cc2cccc(C)c2)NC(=O)[C@H](CC(=O)O)NC(=O)[C@H](Cc2ccc(OCC(=O)O)cc2)NC(=O)[C@H](CN)NC(=O)CSCC(C(=O)NCCOCCOCC(=O)NCCCCCCCCCCC(=O)O)NC(=O)[C@H](CN)NC(=O)[C@H](C(C)C)NC(=O)[C@H](CC2CCCCC2)NC(=O)[C@H](CCN)NC(=O)[C@@H](CC(C)C)NC(=O)[C@H](CCCN)NC1=O (stereo partly drawn) [Compound 2646] ({CH2CO}-[Dap]Y(Carboxymethyl)D[Phe(3-Me)]V[Bip]I[Orn][dL][Dab][Cha]V[Dap][ξC][AEEA][Aun]-OH; thioether N-14) | 13.2 nM
12 | Cc1cccc(C[C@@H]2NC(=O)[C@H](CC(=O)O)NC(=O)[C@H](Cc3ccc(OCC(=O)O)cc3)NC(=O)[C@H](CN)NC(=O)CSCC(C(=O)NCCOCCOCC(=O)NCCCCCCCCCCC(=O)O)NC(=O)[C@H](CCCN)NC(=O)[C@H](C(C)C)NC(=O)[C@H](CC3CCCCC3)NC(=O)[C@H](CCN)NC(=O)[C@@H](CC(C)C)NC(=O)[C@H](CCCN)NC(=O)[C@H](CCCNC(N)=O)NC(=O)[C@H](Cc3ccc(-c4ccccc4)cc3)NC(=O)[C@H](C(C)C)NC2=O)c1 (stereo partly drawn) [Compound 2647] ({CH2CO}-[Dap]Y(Carboxymethyl)D[Phe(3-Me)]V[Bip][Cit][Orn][dL][Dab][Cha]V[Orn][ξC][AEEA][Aun]-OH; thioether N-14) | 7.7 nM
13 | CC[C@H](C)[C@@H]1NC(=O)[C@H](Cc2ccc(-c3ccccc3)cc2)NC(=O)[C@H](C(C)C)NC(=O)[C@H](Cc2cccc(C)c2)NC(=O)[C@H](CC(=O)O)NC(=O)[C@H](Cc2ccc(OCC(=O)O)cc2)NC(=O)[C@H](CN)NC(=O)CSCC(C(=O)NCCOCCOCC(=O)NCCCCCCCCCCC(=O)O)NC(=O)[C@H](CCCN)NC(=O)[C@H](C(C)C)NC(=O)[C@H](CC2CCCCC2)NC(=O)[C@H](CCN)NC(=O)[C@@H](CC(C)C)NC(=O)[C@H](CCCN)NC1=O (stereo partly drawn) [Compound 2648] ({CH2CO}-[Dap]Y(Carboxymethyl)D[Phe(3-Me)]V[Bip]I[Orn][dL][Dab][Cha]V[Orn][ξC][AEEA][Aun]-OH; thioether N-14) | 8.9 nM
